Assay results from patent US8017612B2, “Piperazine compound and use thereof as a HCV polymerase inhibitor” (priority 2006, dated 2011).

Tests used:
[1] = target: T1, HCV polymerase (NS5B) type 1a (Hepatitis C virus genotype 1a, UniProt P26664); assay: Assay of enzyme (HCV polymerase) inhibitory activity, type 1a enzyme; type: biochemical, HCV type 1a (cloned from the blood of patients); settings: HCV polymerase inhibitory activity (IC50), 1a, type 1a enzyme 1.5 μg/ml, 25° C., 60 min
T1 construct: made in house; host or cells: Escherichia coli (by the 'similar method' of the 1b enzyme)
Procedure, shortened: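 His-tagged NS5B, C-terminal 47 residues deleted, type 1a at 1.5 μg/ml, with 5 μg/ml HCV 3′UTR substrate RNA, 50 μM ATP/GTP/CTP, 2 μM UTP plus [3H]UTP, pH 7.5 Tris, 5 mM MgCl2; 60 min at 25° C. TCA-precipitated RNA counted by scintillation; IC50 from radioactivity with vs. without compound.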

[2] = target: T2, HCV polymerase (NS5B) type 1b (Hepatitis C virus genotype 1b, UniProt P26663); assay: Assay of enzyme (HCV polymerase) inhibitory activity, type 1b enzyme; type: biochemical, HCV BK strain (type 1b); settings: HCV polymerase inhibitory activity (IC50), 1b, type 1b enzyme 0.5 μg/ml, 25° C., 60 min
T2 construct: a region encoding NS5B (J Virol 1991 March, 65(3), 1105-13, 544 amino acids after deletion of 47 amino acids on the C-terminal); 6xHis (C); made in house; host or cells: Escherichia coli
Procedure, shortened: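 His-tagged, C-terminally truncated NS5B (BK strain, 1b; 0.5 μg/ml) incubated with compound 60 min at 25 °C on 3′UTR-derived substrate RNA (5 μg/ml), 50 μM ATP/GTP/CTP, 2 μM UTP plus [3H]UTP, pH 7.5. Acid-precipitated RNA counted; IC50 from radioactivity with and without compound.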

Compound	IC50 [1] [nM]	IC50 [2] [nM]
CC(=O)N1CCN(S(=O)(=O)c2ccc(CC(C)(C)C)cc2)[C@@H](C(=O)NCc2ccc(C(C)C)cc2)C1 [Example 237, (R)-4-acetyl-1-[4-(2,2-dimethyl-propyl)-benzenesulfonyl]-piperazine-2-carboxylic acid 4-isopropyl-benzylamide]	< 100	< 100
COC(=O)COc1ccc(S(=O)(=O)N2CCN(C(C)=O)C[C@@H]2C(=O)NCc2ccc(C(C)C)cc2)cc1 [Example 238, {4-[(R)-4-acetyl-2-(4-isopropyl-benzylcarbamoyl)-piperazine-1-sulfonyl]-phenoxy}-acetic acid methyl ester]	> 1000	100 to 1000
COc1ccc(S(=O)(=O)N2CCN(C(C)=O)C[C@@H]2C(=O)NCc2ccc(C(C)C)cc2)cc1C#N [Example 239, (R)-4-acetyl-1-(3-cyano-4-methoxy-benzenesulfonyl)-piperazine-2-carboxylic acid 4-isopropyl-benzylamide]	> 1000	100 to 1000
COc1ccc(S(=O)(=O)N2CCN(C(C)=O)C[C@@H]2C(=O)NCc2ccc(C(C)C)cc2)cc1C(C)(C)C [Example 240, (R)-4-acetyl-1-(3-tert-butyl-4-methoxy-benzenesulfonyl)-piperazine-2-carboxylic acid 4-isopropyl-benzylamide]	100 to 1000	< 100
COc1ccc(S(=O)(=O)N2CCN(C(C)=O)C[C@@H]2C(=O)NCc2ccc(C(C)C)cc2)cc1C1CCCC1 [Example 241, (R)-4-acetyl-1-(3-cyclopentyl-4-methoxy-benzenesulfonyl)-piperazine-2-carboxylic acid 4-isopropyl-benzylamide]	100 to 1000	100 to 1000
CC(C)c1ccc(CNC(=O)[C@H]2CN(C(=O)Cn3nccn3)CCN2S(=O)(=O)c2ccc(C(F)(F)F)cc2)cc1 [Example 242, (R)-4-(2-[1,2,3]triazol-2-yl-acetyl)-1-(4-trifluoromethyl-benzenesulfonyl)-piperazine-2-carboxylic acid 4-isopropyl-benzylamide]	100 to 1000	100 to 1000
CC(C)c1ccc(CNC(=O)[C@H]2CN(C(=O)NCc3ccccc3)CCN2S(=O)(=O)c2ccc(C(F)(F)F)cc2)cc1 [Example 243, (R)-4-(4-trifluoromethyl-benzenesulfonyl)-piperazine-1,3-dicarboxylic acid 1-benzylamide 3-(4-isopropyl-benzylamide)]	> 1000	> 1000
CC(C)c1ccc(CNC(=O)[C@H]2CN(c3nc(C(=O)O)cs3)CCN2S(=O)(=O)c2ccc(C(F)(F)F)cc2)cc1 [Example 244, 2-[(R)-3-(4-isopropyl-benzylcarbamoyl)-4-(4-trifluoromethyl-benzenesulfonyl)-piperazin-1-yl]-thiazole-4-carboxylic acid]	100 to 1000	100 to 1000
CCOC(=O)COc1ccc(NC(=O)N2CCN(S(=O)(=O)c3ccc(C(F)(F)F)cc3)[C@@H](C(=O)NCc3ccc(C(C)C)cc3)C2)cc1 [Example 245, (4-{[(R)-3-(4-isopropyl-benzylcarbamoyl)-4-(4-trifluoromethyl-benzenesulfonyl)-piperazine-1-carbonyl]-amino}-phenoxy)-acetic acid ethyl ester]	> 1000	100 to 1000
CC(C)c1ccc(CNC(=O)[C@H]2CN(C(=O)Nc3ccc(OCC(=O)O)cc3)CCN2S(=O)(=O)c2ccc(C(F)(F)F)cc2)cc1 [Example 246, (4-{[(R)-3-(4-isopropyl-benzylcarbamoyl)-4-(4-trifluoromethyl-benzenesulfonyl)-piperazine-1-carbonyl]-amino}-phenoxy)-acetic acid]	> 1000	100 to 1000
CCCc1ccc(S(=O)(=O)N2CCN(C(C)=O)C[C@@H]2C(=O)NCc2ccc(CC)cc2)cc1 [Example 247, (R)-4-acetyl-1-(4-propyl-benzenesulfonyl)-piperazine-2-carboxylic acid 4-ethyl-benzylamide]	100 to 1000	< 100
COc1ccc(S(=O)(=O)N2CCN(C(C)=O)C[C@@H]2C(=O)NCc2ccc(C(C)C)cc2)cc1C(=O)O [Example 248, 5-[(R)-4-acetyl-2-(4-isopropyl-benzylcarbamoyl)-piperazine-1-sulfonyl]-2-methoxy-benzoic acid]	> 1000	100 to 1000
CC(=O)N1CCN(S(=O)(=O)c2ccc(OCC(=O)O)cc2)[C@@H](C(=O)NCc2ccc(C(C)C)cc2)C1 [Example 249, {4-[(R)-4-acetyl-2-(4-isopropyl-benzylcarbamoyl)-piperazine-1-sulfonyl]-phenoxy}-acetic acid]	> 1000	> 1000
COC(=O)CCOc1ccc(S(=O)(=O)N2CCN(C(C)=O)C[C@@H]2C(=O)NCc2ccc(C(C)C)cc2)cc1 [Example 250, 3-{4-[(R)-4-acetyl-2-(4-isopropyl-benzylcarbamoyl)-piperazine-1-sulfonyl]-phenoxy}-propionic acid methyl ester]	100 to 1000	100 to 1000
CC(=O)N1CCN(S(=O)(=O)c2ccc(O)cc2)[C@@H](C(=O)NCc2ccc(C(C)C)cc2)C1 [Example 251, (R)-4-acetyl-1-(4-hydroxy-benzenesulfonyl)-piperazine-2-carboxylic acid 4-isopropyl-benzylamide]	> 1000	> 1000
COC(=O)CCC(=O)NCC(=O)N1CCN(S(=O)(=O)c2ccc(C(F)(F)F)cc2)[C@@H](C(=O)NCc2ccc(C(C)C)cc2)C1 [Example 252, N-{2-[(R)-3-(4-isopropyl-benzylcarbamoyl)-4-(4-trifluoromethyl-benzenesulfonyl)-piperazin-1-yl]-2-oxo-ethyl}-succinamic acid methyl ester]	100 to 1000	100 to 1000
CC(=O)N1CCN(S(=O)(=O)c2ccc(C(C)C)cc2)[C@@H](C(=O)NCc2ccc(C(C)(C)C)cc2)C1 [Example 253, (R)-4-acetyl-1-(4-isopropyl-benzenesulfonyl)-piperazine-2-carboxylic acid 4-tert-butyl-benzylamide]	< 100	< 100
COC(=O)c1sc(N2CCN(S(=O)(=O)c3ccc(C(F)(F)F)cc3)[C@@H](C(=O)NCc3ccc(C(C)C)cc3)C2)nc1C [Example 254, 2-[(R)-3-(4-isopropyl-benzylcarbamoyl)-4-(4-trifluoromethyl-benzenesulfonyl)-piperazin-1-yl]-4-methyl-thiazole-5-carboxylic acid methyl ester]	100 to 1000	< 100
COC(=O)Cc1csc(N2CCN(S(=O)(=O)c3ccc(C(F)(F)F)cc3)[C@@H](C(=O)NCc3ccc(C(C)C)cc3)C2)n1 [Example 255, {2-[(R)-3-(4-isopropyl-benzylcarbamoyl)-4-(4-trifluoromethyl-benzenesulfonyl)-piperazin-1-yl]-thiazol-4-yl}-acetic acid methyl ester]	< 100	< 100
CCOC(=O)COc1cccc(NC(=O)N2CCN(S(=O)(=O)c3ccc(C(F)(F)F)cc3)[C@@H](C(=O)NCc3ccc(C(C)C)cc3)C2)c1 [Example 256, (3-{[(R)-3-(4-isopropyl-benzylcarbamoyl)-4-(4-trifluoromethyl-benzenesulfonyl)-piperazine-1-carbonyl]-amino}-phenoxy)-acetic acid ethyl ester]	100 to 1000	100 to 1000
CC(C)c1ccc(CNC(=O)[C@H]2CN(C(=O)Cn3cnnn3)CCN2S(=O)(=O)c2ccc(C(F)(F)F)cc2)cc1 [Example 257, (R)-4-(2-tetrazol-1-yl-acetyl)-1-(4-trifluoromethyl-benzenesulfonyl)-piperazine-2-carboxylic acid 4-isopropyl-benzylamide]	< 100	< 100
CC(C)c1ccc(CNC(=O)[C@H]2CN(C(=O)CC#N)CCN2S(=O)(=O)c2ccc(C(F)(F)F)cc2)cc1 [Example 258, (R)-4-(2-cyano-acetyl)-1-(4-trifluoromethyl-benzenesulfonyl)-piperazine-2-carboxylic acid 4-isopropyl-benzylamide]	< 100	< 100
CC(C)c1ccc(CNC(=O)[C@H]2CN(c3nc(CC(=O)O)cs3)CCN2S(=O)(=O)c2ccc(C(F)(F)F)cc2)cc1 [Example 259, {2-[(R)-3-(4-isopropyl-benzylcarbamoyl)-4-(4-trifluoromethyl-benzenesulfonyl)-piperazin-1-yl]-thiazol-4-yl}-acetic acid]	100 to 1000	< 100
CC(C)c1ccc(CNC(=O)[C@H]2CN(C(=O)Nc3cccc(OCC(=O)O)c3)CCN2S(=O)(=O)c2ccc(C(F)(F)F)cc2)cc1 [Example 260, (3-{[(R)-3-(4-isopropyl-benzylcarbamoyl)-4-(4-trifluoromethyl-benzenesulfonyl)-piperazine-1-carbonyl]-amino}-phenoxy)-acetic acid]	100 to 1000	100 to 1000
CC(C)c1ccc(CNC(=O)[C@H]2CN(C(=O)Cc3nnn[nH]3)CCN2S(=O)(=O)c2ccc(C(F)(F)F)cc2)cc1 [Example 261, (R)-4-(2-1H-tetrazol-5-yl-acetyl)-1-(4-trifluoromethyl-benzenesulfonyl)-piperazine-2-carboxylic acid 4-isopropyl-benzylamide]	> 1000	100 to 1000
